Values quoted from earlier work, collected in paper PMC1892056, “Barusiban suppresses oxytocin-induced preterm labour in non-human primates” (BMC Pregnancy and Childbirth, 2007).
“And” between values parts separate entries of the source, which are not always exact repeats. Equal values may be shown once. Read-outs that look alike come from different tables or passages of the source.

Key:
[1] = tested on: pregnant cynomolgus monkeys; parameters: method as in PMID 16914691; conditions: for Treatment days until delivery / end of treatment: continuous IV infusion from ca. GD 141, daily OT challenge, barusiban group delivered after the end of treatment; for Basal overall IUP before the daily OT challenges compared to control: during continuous barusiban or fenoterol treatment; for Day of delivery: gestational day, barusiban 150 μg kg^-1 h^-1 or fenoterol 3 μg kg^-1 h^-1 continuous infusion from ca. GD 141, daily OT challenge
Text: Background Preterm labour (PTL) is a major cause of neonatal mortality and morbidity, and oxytocin (OT) antagonists are potential tocolytics. Atosiban (TRACTOCILE) is a mixed vasopressin V1A/OT antagonist registered for acute treatment of PTL in Europe. […] Barusiban is a selective OT antagonist which has reached clinical development. A monkey model with OT-induced PTL was developed to compare barusiban and atosiban. In addition, the feasibility for long-term treatment of PTL with barusiban was explored.

[2] = tested on: pregnant cynomolgus monkeys; conditions: for Potency (IC50): calculated PK/PD potency (plasma concentration) for inhibition of OT-induced IUP, IV bolus or infusion; for Duration of action / Efficacy (decrease in IUP) / Onset of action: overall results for IV high- or low-dose bolus or infusion; for Duration of effect on IUP after high-dose infusion: two-hour high-dose IV infusion, barusiban 150 μg kg^-1 h^-1, atosiban 250 μg kg^-1 h^-1
Text: Table 1 Summary of barusiban and atosiban PK/PD characteristics | column: Barusiban; Atosiban || Background Preterm labour (PTL) is a major cause of neonatal mortality and morbidity, and oxytocin (OT) antagonists are potential tocolytics. Atosiban (TRACTOCILE) is a mixed vasopressin V1A/OT antagonist registered for acute treatment of PTL in Europe. Other off-label drugs have serious side effects. Barusiban is a selective OT antagonist which has reached clinical development. A monkey model with OT-induced PTL was developed to compare barusiban and atosiban. In addition, the feasibility for long-term treatment of PTL with barusiban was explored. Methods Conscious pregnant cynomolgus monkeys ... || Following induction of stable contractions by OT, barusiban or atosiban were administered as high- or low-dose bolus or infusion. […] However, barusiban's duration of action was generally longer than 13–15 hours, while atosiban's effect ceased within 1.5–3 hours (Table 1). The calculated potency of barusiban was about four times higher than the potency of atosiban. || (+ 1 further places)

[3] = pregnant cynomolgus monkeys, IV high- or low-dose bolus or infusion, plasma, LC-MS/MS
Text: Table 1 Summary of barusiban and atosiban PK/PD characteristics | column: Barusiban; Atosiban

[4] = tested on: human cloned OT receptor; conditions: selectivity OT receptor over V1A receptor
Text: Barusiban is a new long-acting OT receptor antagonist developed for PTL. It is a cyclic heptapeptide and an analogue of endogenous OT designed for longer duration of action. This could provide the convenience of less frequent administration in the clinic. Barusiban has approximately 300-fold greater affinity for the human cloned OT receptor than for the V1A receptor, whereas atosiban binds well to both receptors. […] It has reached phase II of clinical developmen ...

[5] = tested on: pregnant cynomolgus monkeys
Text: Background Preterm labour (PTL) is a major cause of neonatal mortality and morbidity, and oxytocin (OT) antagonists are potential tocolytics. Atosiban (TRACTOCILE) is a mixed vasopressin V1A/OT antagonist registered for acute treatment of PTL in Europe. Other off-label drugs have serious side effects. Barusiban is a selective OT antagonist which has reached clinical development. A monkey model with OT-induced PTL was developed to compare barusiban and atosiban. In addition, the feasibility for long-term treatment of PTL with barusiban was explored. Methods Conscious pregnant cynomolgus monkeys ... || Figure 2 Oxytocin-induced uterine contractions in cynomolgus monkeys. Individual infusion of 5–90 mU OT kg^-1 h^-1 induced stable uterine contractions of about 15–40 mmHg. No short- or long-term desensitisation of OT-induced contractions was observed. On the background of these stable OT-induced contractions, different tocolytics have been evaluated in terms of their PK/PD characteristics. Here two monkeys were infused in parallel for about 11 hours during the night. The switch-off the lights in the evening (06:00 PM) and switch-on the lights (06:00 AM) is labelled by respective symbols.

[6] = pregnant cynomolgus monkeys, OT-induced contractions

Row | Compound | Treatment days until delivery / end of treatment [1] | Basal overall IUP before the daily OT challenges compared to control [1] | Day of delivery [1] [days] | Potency (IC50) [2] [µg/mL] | Duration of action [2, 6] [h] | Onset of action [2, 6] [h] | Duration of effect on IUP after high-dose infusion ([2]; n = 3) | Clearance [3] [mL/min/kg] | Distribution [3] [mL/kg] | Half-life [3] [min] | further results
1 | CC(Cc1ccc(O)cc1)NCC(O)c1cc(O)cc(O)c1 (stereo not drawn) [fenoterol, reference compound] | ~17 days | unchanged | ~154 |  |  |  |  |  |  |  | 
2 | Atosiban [reference compound] |  |  |  | 0.0474 | 1 to 3 | ≤0.5 to 1.0 | 3 h | 8.98 to 15.6 | 359 to 640 | 27.6 to 39.6 | Efficacy (decrease in IUP) [2, 6]: ≤96%; Efficacy (decrease in IUP) ([2]; pregnant cynomolgus monkeys, OT-induced contractions, listed as atosiban): > 95%
3 | Barusiban | approximately 23 days | unchanged | ~163 | 0.0127 | > 13 to 15 | ≤0.5 to 1.5 | more than 14 h | 0.417 to 1.1 | 70 to 159 | 87.6 to 154 | Potency relative to atosiban ([2]; calculated potency of barusiban versus atosiban, OT-induced contractions): about four; Reversibility of inhibition of contractions ([2]; high-dose barusiban bolus, then escalating high-dose OT rescue infusion (133–2000 mU kg^-1 h^-1)): reversible with high-dose OT; Tolerability ([2]; pregnant cynomolgus monkeys): well tolerated; Duration of action ([2]; pregnant cynomolgus monkeys, OT-induced contractions, listed as barusiban): 13 to 15 h and > 13 h; Time to decrease in IUP compared with OT control levels ([2]; two hour high-dose IV infusion of barusiban at 150 μg kg^-1 h^-1, n = 3): ≤ 0.5 h; Affinity for the human cloned OT receptor relative to the V1A receptor [4]: approximately 300 fold; Days with statistically lower IUP than the control group ([1]; barusiban 150 μg kg^-1 h^-1 continuous IV infusion, daily 3–6 h OT infusion): 8/17; Rise in overall IUP during OT infusion ([1]; barusiban 150 μg kg^-1 h^-1 continuous infusion, OT control about fourfold increase): 30%; Days with statistically lower IUP than the fenoterol group ([1]; barusiban 150 μg kg^-1 h^-1 versus fenoterol 3 μg kg^-1 h^-1, continuous IV infusion, daily 3–6 h OT infusion): 11/17
4 | oxytocin [OT] |  |  |  |  |  |  |  |  |  |  | Desensitisation of OT-induced contractions ([5]; OT infusion 5–90 mU kg^-1 h^-1, short- and long-term): no OT-related desensitization occurred; Induced uterine contractions (IUP) ([5]; individual OT infusions at 5–90 mU kg^-1 h^-1): 15–40 mmHg
